Results from patent US5677305A, “Oxopyridinylquinoxaline derivative” (Shionogi & Co., Ltd., priority 1994, dated 1997).
pIC50: −log10 of the molar value.

Tests used:
[1] = test system: glycine binding site of the NMDA receptors; details: in words; cited from earlier work
[2] = biological target: T1, glycine binding site of NMDA receptors (Rattus norvegicus, UniProt P35439); assay: competitive binding to a glycine binding site of NMDA receptors ([3H]glycine); design: species or system Slc-Wistar rat; details: for pIC50: [3H]glycine 100 nM, rat cerebral cortex membrane, 0° C., 10 minutes
T1 construct: the cerebral cortex of an Slc-Wistar rat (250 to 300 g in weight) was homogenized; from tissue; host or cells: cerebral cortex of Slc-Wistar rat, washed and Triton X-100 treated membranes
Experimental: The ability of the compounds of the present invention to bind to a glycine binding site of the NMDA receptors can be measured, for example, using competitive assay in vitro as described below.
(§1) A rat cerebral cortex is homogenized with a buffer solution, and repeatedly centrifuged and resuspended in a buffer to prepare a membrane sample. The membrane sample is mixed with a solution containing [^3 H] glycine and a compound of interest and incubated for a predetermined period of time. Then, the reaction of the mixture is terminated by dilution and filtration using filter paper. Radioactivity on the filter paper is measured by a liquid scintillation counter. Non-specific binding is measured with 1 mM of non-radioactive glycine to work out IC50.
Assay for competitive binding of 6-nitro-7-(4-oxo-4H-pyridin-1-yl)-1,4-dihydroquinoxaline-2,3-dione (Ia) to a glycine binding site of NMDA receptors.
First, the cerebral cortex of an Slc-Wistar rat (250 to 300 g in weight) was homogenized in 5 mM Tris acetic acid buffer in 20-fold volume (containing 1 mM EGTA, 0.1 mM PMSF, and 0.01% Bacitracin, pH 7.4). The cerebral cortex was centrifuged at 50,000×g for 30 minutes and resuspended in a buffer. This process was repeated four times. The final suspension was stored at -80° C. The frozen suspension was thawed at room temperature and incubated with 0.08% Triton X-100 solution at […] for 10 minutes. The resultant suspension was then washed twice and suspended in 50 mM Tris-acetate buffer (pH 7.4) to give a membrane sample. The membrane sample was mixed with 100 nM [^3 H]glycine and solutions in a series of concentrations of Compound Ia obtained in Example 1. The mixtures were incubated at 0° C. for 10 minutes. Each of the mixtures was diluted and filtered using Whatman GF/C filter paper so as to terminate the reaction, and radioactivity of ^3 H remaining on the filter paper was measured by a scintillation counter for liquid. […] IC50 value of Compound Ia was determined using YM900 (a compound of Example 15 described in WO92/07847) as a control in the same way as described above.

AMPA receptors = assay: competitive binding to AMPA receptors ([3H]AMPA); design: species or system Slc-Wistar rat; details: [3H]AMPA 30 nM, rat cerebral cortex membrane, 100 mM KSCN, 0° C., 30 minutes
Experimental: The binding ability of the compounds of the present invention with respect to the AMPA receptors can be measured, for example, by the following competitive assay.
as §1, with “H] AMPA” for “H] glycine”, “non-radioactive glutamate” for “non-radioactive glycine”
Assay for competitive binding of 6-nitro-7-(4-oxo-4H-pyridin-1-yl)-1,4-dihydroquinoxaline-2,3-dione (Ia) to AMPA receptors.
First, the cerebral cortex of an Slc-Wistar rat (250 to 300 g in weight) was homogenized in 30 mM Tris acetic acid buffer in 10-fold volume (containing 2.5 mM CaCl2, pH 7.1). […] Each of the mixtures was diluted and filtered using Whatman GF/C filter paper so as to terminate the reaction, and radioactivity of ^3 H remaining on the filter paper was measured by a scintillation counter for liquid. […] IC50 value of Compound Ia was determined using YM900 as a control in the same way as described above.

Row | antagonistic effects as strong as that of YM900 (times) ([2]; Ia vs YM900, from Table 2) | pIC50 [2] | pIC50 (AMPA receptors) | SMILES | antagonistic effects on the glycine binding site of the NMDA receptors [1]
1 |  |  |  | N#Cc1cc2[nH]c(=O)c(=O)[nH]c2cc1[N+](=O)[O-] [CNQX, 6-cyano-7-nitroquinoxaline-2,3-dione] | exhibit antagonistic effects on the glycine binding site of the NMDA receptors
2 |  |  |  | O=c1[nH]c2cc([N+](=O)[O-])c([N+](=O)[O-])cc2[nH]c1=O [DNQX, 6,7-dinitroquinoxaline-2,3-dione] | exhibit antagonistic effects on the glycine binding site of the NMDA receptors
3 | approximately ten | 5.18 | 7.00 | O=c1ccn(-c2cc3[nH]c(=O)c(=O)[nH]c3cc2[N+](=O)[O-])cc1 [Ia, 6-nitro-7-(4-oxo-4H-pyridin-1-yl)-1,4-dihydroquinoxaline-2,3-dione] | 
4 |  | 4.17 | 6.55 | O=c1[nH]c2cc(-n3ccnc3)c([N+](=O)[O-])cc2[nH]c1=O [YM900, 6-imidazolyl-7-nitroquinoxaline-2,3-(1H, 4H)-dione] | 
